Assay results published in patent US10947229B2, “Dimethyl amino azetidine amides as JAK inhibitors” (THERAVANCE BIOPHARMA R&D IP, LLC, priority 2018, dated 2021).

Experiments:
[1] = Lung S9 metabolism; format: in vitro ADME, human; details: for Compound Remaining at 60 min (%) / microsomal CLint at 1 µM: human lung S9, 1 μM compound, 1 mg/mL S9 protein; for Sulfate Appearance: human lung S9, qualitative O-sulfate metabolite peak; for microsomal CLint at 1 µM: human lung S9 fraction, pH 7.4, NADPH and PAPS, read-out: Clearance
Protocol: The time 0, 15, 30, and 60 minute samples were analyzed for parent compound by high resolution LC-MS/MS. Lung S9 fractions from human (lot 1410245) were purchased from XenoTech LLC (Lenexa, Kans.). NADPH (Sigma Aldrich, N1630) and 3-phosphoadenosine 5-phosphosulfate (PAPS) (Sigma Aldrich, A1651) were purchased from Sigma Aldrich (St. Louis, Mo.). Acetonitrile and water were obtained from VWR (Radnor, Pa.) and were of HPLC grade or better. Raloxifene and formic acid was purchased from Sigma Aldrich (St. Louis, Mo.). Lung S9 incubations were performed in a water bath at 37° C. in a 96-well polypropylene plate. […] Louis, Mo.), 3 mM magnesium chloride (Sigma Aldrich, M1028) and in the presence of 100 μM PAPS (Sigma-Aldrich, St. […] Incubation volumes consisted of 400 μL and time points were taken at 0, 15, 30, and 60 minutes by the removal of a 70 μL aliquot and dilution into 140 μL acetonitrile (0% formic acid). All samples were centrifuged at 2250 g for 10 minutes at 5° C. Supernatant […] was taken from the centrifuged samples and diluted into 100 μL HPLC water containing internal standard. The samples were run on a Dionex Ultimate 3000 Auto sampler and analyzed using a Thermo Q-Exactive High Resolution Mass Spectrometer (Thermo, Waltham, Mass.) in Full Scan mode in conjunction with an Atlantis T3 column 3 μM-2.1×50 mm (Waters Inc., 186003717). Mobile Phase A consisted of Water+0.2% formic acid and Mobile Phase B consisted of acetonitrile +0.2% formic acid. Peak integration was accomplished using Gubbs GMSU software (Gubbs Inc., Alpharetta, Ga.). For each sample, peak area ratios were calculated by dividing the analyte peak area by the internal standard peak area. For each incubation, the peak area ratios of the analytes in each t0 was set to 100%, and the peak areas ratios from the 60 minute samples were converted to percentages remaining relative to the corresponding t0. Determination of sulfate metabolite formation was made qualitatively by observation of early-eluting peak in the parent ion channel which, based on historical internal data, corresponded to the O-sulfate metabolite of each parent compound.

[2] = biological target: JAK1 (Homo sapiens (Human), UniProt P23458); test: Biochemical JAK kinase assay (LanthaScreen), JAK1; details: read-out: JAK1 pKi (converted)
Protocol: (§1) Recombinant GST-tagged JAK enzymes and a GFP-tagged STAT1 peptide substrate were obtained from Life Technologies. Serially diluted compounds were pre-incubated with each of the four JAK enzymes and the substrate in white 384-well microplates (Corning) at ambient temperature for 1 h. ATP was subsequently added to initiate the kinase reactions in 10 μL total volume, with 1% DMSO. […] Kinase reactions were allowed to proceed for 1 hour at ambient temperature before a 10 μL preparation of EDTA (10 mM final concentration) and Tb-anti-pSTAT1 ([…]) antibody (Life Technologies, 2 nM final concentration) in TR-FRET dilution buffer (Life Technologies) was added. The plates were allowed to incubate at ambient temperature for 1 h before being read on the EnVision reader (Perkin Elmer). Emission ratio signals (520 nm/495 nm) were recorded and utilized to calculate the percent inhibition values based on DMSO and background controls. For dose-response analysis, percent inhibition data were plotted vs. compound concentrations, and IC50 values were determined from a 4-parameter robust fit model with the Prism software (GraphPad Software). Results were expressed as pIC50 (negative logarithm of IC50) and subsequently converted to pKi (negative logarithm of dissociation constant, Ki) using the Cheng-Prusoff equation.

[3] = biological target: JAK2 (Homo sapiens (Human), UniProt O60674); test: Biochemical JAK kinase assay (LanthaScreen), JAK2; details: for Ki: read-out: JAK2 pKi (converted)
Protocol: as §1, with “equation. Test compounds having a lower Ki value or higher pKi value in the four JAK assays show greater inhibition of JAK activity.” for “equation.”

[4] = tested on: IL-2 stimulated pSTAT5 in Tall-1 T cells; test: Inhibition of IL-2 stimulated pSTAT5 in Tall-1 T cells; format: cell-based; details: IL-2 stimulated pSTAT5, Tall-1 human T cell line; read-out: Tall-1 pIC50 (converted)
Protocol: The potency of test compounds for inhibition of interleukin-2 (IL-2) stimulated STAT5 phosphorylation was measured in the Tall-1 human T cell line (DSMZ) using AlphaLisa. Because IL-2 signals through JAK1/3, this assay provides a measure of JAK1/3 cellular potency.
Phosphorylated STAT5 was measured via the AlphaLISA SureFire Ultra pSTAT5 (Tyr694/699) kit (PerkinElmer).
Human T cells from the Tall-1 cell line were cultured in a 37° C., 5% CO2 humidified incubator in RPMI (Life Technologies) supplemented with 15% Heat Inactivated Fetal Bovine Serum (FBS, Life Technologies), 2 mM Glutamax (Life Technologies), 25 mM HEPES (Life Technologies) and 1× Pen/Strep (Life Technologies). Compounds were serially diluted in DMSO and dispensed acoustically to empty wells. Assay media (phenol red-free DMEM (Life Technologies) supplemented with 10% FBS (ATCC)) was dispensed (4 μL/well) and plates shaken at 900 rpm for 10 mins. Cells were seeded at 45,000 cells/well in assay media (4 μL/well), and incubated at 37° C., 5% CO2 for 1 hour, followed by the addition of IL-2 (R&D Systems; final concentration 300 ng/mL) in pre-warmed assay media (4 μL) for 30 minutes. After cytokine stimulation, cells were lysed with 6 ul of 3× AlphaLisa Lysis Buffer (PerkinElmer) containing 1× PhosStop and Complete tablets (Roche). The lysate was shaken at 900 rpm for 10 minutes at room temperature (RT). Phosphorylated STAT5 was measured via the pSTAT5 AlphaLisa kit (PerkinElmer). Freshly prepared acceptor bead mixture was dispensed onto lysate (5 μL) under green filtered <100 lux light. Plates were shaken at 900 rpm for 2 mins, briefly spun down, and incubated for 2 hrs at RT in the dark. Donor beads were dispensed (5 μL) under green filtered <100 lux light. Plates were shaken at 900 rpm for 2 minutes, briefly spun down, and incubated overnight at RT in the dark. Luminescence was measured with excitation at 689 nm and emission at 570 nm using an EnVision plate reader (PerkinElmer) under green filtered <100 lux light.
To determine the inhibitory potency of test compounds in response to IL-2, the average emission intensity of beads bound to pSTAT5 was measured in a human T cell line. IC50 values were determined from analysis of the inhibition curves of signal intensity versus compound concentration. Data are expressed as pIC50 (negative decadic logarithm IC50) values (mean±standard deviation).

[5] = biological target: Tyk2 (Homo sapiens (Human), UniProt P29597); test: Biochemical JAK kinase assay (LanthaScreen), Tyk2
Protocol: as §1

Chain of JAK2 (O60674 whole entry): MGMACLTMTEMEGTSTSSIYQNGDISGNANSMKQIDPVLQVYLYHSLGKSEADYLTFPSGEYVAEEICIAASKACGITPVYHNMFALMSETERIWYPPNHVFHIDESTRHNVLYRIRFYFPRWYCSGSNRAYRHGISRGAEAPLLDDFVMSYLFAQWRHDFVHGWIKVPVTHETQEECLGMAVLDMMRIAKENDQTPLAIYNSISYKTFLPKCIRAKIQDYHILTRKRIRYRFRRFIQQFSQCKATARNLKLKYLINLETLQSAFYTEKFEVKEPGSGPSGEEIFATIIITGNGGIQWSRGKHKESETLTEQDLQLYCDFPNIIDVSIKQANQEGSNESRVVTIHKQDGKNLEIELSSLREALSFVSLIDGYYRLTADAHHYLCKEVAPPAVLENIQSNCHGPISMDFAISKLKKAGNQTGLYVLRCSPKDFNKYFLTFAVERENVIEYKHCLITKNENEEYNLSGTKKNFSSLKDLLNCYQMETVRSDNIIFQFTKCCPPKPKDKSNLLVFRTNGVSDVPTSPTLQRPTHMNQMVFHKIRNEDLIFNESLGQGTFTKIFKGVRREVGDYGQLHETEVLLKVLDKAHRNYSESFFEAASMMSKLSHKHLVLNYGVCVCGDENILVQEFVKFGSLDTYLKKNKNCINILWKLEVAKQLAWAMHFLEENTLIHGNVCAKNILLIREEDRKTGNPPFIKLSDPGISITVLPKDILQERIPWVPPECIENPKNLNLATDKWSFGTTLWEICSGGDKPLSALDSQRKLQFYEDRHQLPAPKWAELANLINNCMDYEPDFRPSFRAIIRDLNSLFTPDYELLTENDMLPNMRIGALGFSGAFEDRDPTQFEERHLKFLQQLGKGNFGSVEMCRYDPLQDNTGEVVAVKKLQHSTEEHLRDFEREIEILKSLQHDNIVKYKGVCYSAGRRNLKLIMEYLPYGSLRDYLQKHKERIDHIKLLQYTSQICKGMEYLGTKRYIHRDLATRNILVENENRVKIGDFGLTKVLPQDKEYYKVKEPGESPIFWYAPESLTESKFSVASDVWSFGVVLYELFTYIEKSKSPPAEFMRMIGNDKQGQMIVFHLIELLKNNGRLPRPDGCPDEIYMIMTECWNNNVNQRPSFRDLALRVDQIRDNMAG
Chain of JAK1 (P23458 whole entry): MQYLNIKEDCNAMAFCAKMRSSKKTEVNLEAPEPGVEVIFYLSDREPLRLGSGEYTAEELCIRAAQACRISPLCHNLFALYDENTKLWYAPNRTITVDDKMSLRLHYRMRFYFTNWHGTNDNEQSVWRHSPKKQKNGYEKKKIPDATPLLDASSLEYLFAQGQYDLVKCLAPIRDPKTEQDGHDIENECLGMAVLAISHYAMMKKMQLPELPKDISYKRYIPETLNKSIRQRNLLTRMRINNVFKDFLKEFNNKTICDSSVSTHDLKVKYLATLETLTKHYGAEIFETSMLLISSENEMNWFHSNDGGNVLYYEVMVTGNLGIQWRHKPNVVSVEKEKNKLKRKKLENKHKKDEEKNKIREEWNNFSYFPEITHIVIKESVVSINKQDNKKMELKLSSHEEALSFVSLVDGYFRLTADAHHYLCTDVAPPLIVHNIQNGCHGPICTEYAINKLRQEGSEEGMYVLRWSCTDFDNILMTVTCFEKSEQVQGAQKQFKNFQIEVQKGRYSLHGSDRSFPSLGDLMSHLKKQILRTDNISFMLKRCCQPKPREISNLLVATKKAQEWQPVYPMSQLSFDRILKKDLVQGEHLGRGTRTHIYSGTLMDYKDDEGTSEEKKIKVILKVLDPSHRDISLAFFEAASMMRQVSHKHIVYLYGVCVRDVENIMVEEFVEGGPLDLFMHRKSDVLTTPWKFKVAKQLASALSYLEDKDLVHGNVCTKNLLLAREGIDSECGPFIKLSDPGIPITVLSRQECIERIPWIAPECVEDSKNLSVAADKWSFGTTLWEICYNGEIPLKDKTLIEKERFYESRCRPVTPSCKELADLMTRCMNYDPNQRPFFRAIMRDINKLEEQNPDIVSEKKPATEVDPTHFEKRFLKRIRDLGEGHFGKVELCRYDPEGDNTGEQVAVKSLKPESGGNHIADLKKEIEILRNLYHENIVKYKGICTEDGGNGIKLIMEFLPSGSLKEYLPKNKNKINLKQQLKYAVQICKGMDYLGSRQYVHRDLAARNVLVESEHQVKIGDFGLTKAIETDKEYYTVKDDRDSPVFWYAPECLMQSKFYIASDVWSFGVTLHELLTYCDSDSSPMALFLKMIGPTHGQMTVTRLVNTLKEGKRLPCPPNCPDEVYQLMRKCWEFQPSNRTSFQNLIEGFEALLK
Chain of Tyk2 (P29597 whole entry): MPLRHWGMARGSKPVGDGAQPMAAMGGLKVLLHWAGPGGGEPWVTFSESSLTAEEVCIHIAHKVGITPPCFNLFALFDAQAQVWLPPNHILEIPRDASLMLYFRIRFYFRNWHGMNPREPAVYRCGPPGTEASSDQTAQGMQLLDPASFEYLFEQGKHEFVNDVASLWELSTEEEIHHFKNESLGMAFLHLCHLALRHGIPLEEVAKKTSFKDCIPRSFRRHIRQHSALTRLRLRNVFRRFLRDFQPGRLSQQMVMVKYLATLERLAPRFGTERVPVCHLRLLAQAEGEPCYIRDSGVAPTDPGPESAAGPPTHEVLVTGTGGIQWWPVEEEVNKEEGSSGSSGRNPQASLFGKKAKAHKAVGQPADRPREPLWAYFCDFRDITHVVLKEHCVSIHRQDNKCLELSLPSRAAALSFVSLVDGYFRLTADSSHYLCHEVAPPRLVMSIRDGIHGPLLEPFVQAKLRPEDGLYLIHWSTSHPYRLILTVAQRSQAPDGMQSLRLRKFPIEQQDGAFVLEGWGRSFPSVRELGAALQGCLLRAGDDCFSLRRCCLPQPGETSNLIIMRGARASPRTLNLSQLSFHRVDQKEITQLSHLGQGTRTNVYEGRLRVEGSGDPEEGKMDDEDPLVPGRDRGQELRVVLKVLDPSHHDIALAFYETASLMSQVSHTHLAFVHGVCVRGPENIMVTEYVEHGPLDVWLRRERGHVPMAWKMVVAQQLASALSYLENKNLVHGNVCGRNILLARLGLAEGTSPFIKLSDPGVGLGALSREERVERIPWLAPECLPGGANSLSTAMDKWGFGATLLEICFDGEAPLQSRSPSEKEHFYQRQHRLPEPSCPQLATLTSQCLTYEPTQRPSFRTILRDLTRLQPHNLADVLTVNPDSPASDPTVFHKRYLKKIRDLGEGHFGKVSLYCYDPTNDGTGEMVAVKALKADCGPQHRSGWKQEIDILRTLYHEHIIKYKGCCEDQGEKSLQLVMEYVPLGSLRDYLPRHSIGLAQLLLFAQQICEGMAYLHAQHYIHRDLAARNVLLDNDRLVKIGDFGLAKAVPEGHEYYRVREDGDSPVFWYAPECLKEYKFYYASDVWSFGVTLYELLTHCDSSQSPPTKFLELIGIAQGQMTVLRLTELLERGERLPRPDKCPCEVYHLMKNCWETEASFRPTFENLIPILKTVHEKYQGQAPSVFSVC

SMILES	Compound Remaining at 60 min (%) [1]	Sulfate Appearance [1]	microsomal CLint at 1 µM [1]	Ki [2]	Ki [3]	IC50 [4]	Tyk2 pKi [5]	JAK2 pKi [3]
CCc1cc(O)ccc1-c1ccc2c(-c3nc4c([nH]3)CN(C(C)C)[C@H](C(=O)N3CC(C)(N(C)C)C3)C4)n[nH]c2c1 [Compound 4, (S)-(3-(dimethylamino)-3-methylazetidin-1-yl)(2-(6-(2-ethyl-4-hydroxyphenyl)-1H-indazol-3-yl)-5-isopropyl-4,5,6,7-tetrahydro-3H-imidazo[4,5-c]pyridin-6-yl)methanone]	100%	Yes	–	–	–	–	–	–
CCCN1Cc2[nH]c(-c3n[nH]c4cc(-c5ccc(O)cc5CC)ccc34)nc2C[C@H]1C(=O)N1CC(N(C)C)C1 [Compound 5, (S)-(3-(dimethylamino)azetidin-1-yl)(2-(6-(2-ethyl-4-hydroxyphenyl)-1H-indazol-3-yl)-5-propyl-4,5,6,7-tetrahydro-3H-imidazo[4,5-c]pyridin-6-yl)methanone]	96%	Yes	1.6 µL/min/mg	0.0316 nM	–	–	–	–
CCc1cc(O)ccc1-c1ccc2c(-c3nc4c([nH]3)CN(CC)[C@H](C(=O)N3CC(N(C)C)C3)C4)n[nH]c2c1 [Compound 2, (S)-(3-(dimethylamino)azetidin-1-yl)(5-ethyl-2-(6-(2-ethyl-4-hydroxyphenyl)-1H-indazol-3-yl)-4,5,6,7-tetrahydro-3H-imidazo[4,5-c]pyridin-6-yl)methanone]	98%	Yes	0.6 µL/min/mg	–	–	–	–	–
CCc1cc(O)c(F)cc1-c1ccc2c(-c3nc4c([nH]3)CN(C(C)C)[C@H](C(=O)N3CC(C)(N(C)C)C3)C4)n[nH]c2c1 [Compound C-4, (S)-(3-(dimethylamino)-3-methylazetidin-1-yl)(2-(6-(2-ethyl-5-fluoro-4-hydroxyphenyl)-1H-indazol-3-yl)-5-isopropyl-4,5,6,7-tetrahydro-3H-imidazo[4,5-c]pyridin-6-yl)methanone]	4%	Yes	53.2 µL/min/mg	0.0794 nM	0.0126 nM	2.51 nM	–	–
CCCN1Cc2[nH]c(-c3n[nH]c4cc(-c5ccc(O)cc5CC)ccc34)nc2C[C@H]1C(=O)N1CC(C)(N(C)C)C1 [Compound 6, (S)-(3-(dimethylamino)-3-methylazetidin-1-yl)(2-(6-(2-ethyl-4-hydroxyphenyl)-1H-indazol-3-yl)-5-propyl-4,5,6,7-tetrahydro-3H-imidazo[4,5-c]pyridin-6-yl)methanone]	90%	Yes	1.8 µL/min/mg	–	0.0316 nM	–	–	–
CCc1cc(O)c(F)cc1-c1ccc2c(-c3nc4c([nH]3)CN(CC)[C@H](C(=O)N3CC(C)(N(C)C)C3)C4)n[nH]c2c1 [Compound C-3, (S)-(3-(dimethylamino)-3-methylazetidin-1-yl)(5-ethyl-2-(6-(2-ethyl-5-fluoro-4-hydroxyphenyl)-1H-indazol-3-yl)-4,5,6,7-tetrahydro-3H-imidazo[4,5-c]pyridin-6-yl)methanone]	5%	Yes	50.6 µL/min/mg	–	–	2 nM	9.4	10.9
CCc1cc(O)c(F)cc1-c1ccc2c(-c3nc4c([nH]3)CN(C(C)C)[C@H](C(=O)N3CC(N(C)C)C3)C4)n[nH]c2c1 [Compound C-1, (S)-(3-(dimethylamino)azetidin-1-yl)(2-(6-(2-ethyl-5-fluoro-4-hydroxyphenyl)-1H-indazol-3-yl)-5-isopropyl-4,5,6,7-tetrahydro-3H-imidazo[4,5-c]pyridin-6-yl)methanone]	6%	Yes	49 µL/min/mg	–	–	–	–	–
CCCN1Cc2[nH]c(-c3n[nH]c4cc(-c5cc(F)c(O)cc5CC)ccc34)nc2C[C@H]1C(=O)N1CC(C)(N(C)C)C1 [Compound C-6, (S)-(3-(dimethylamino)-3-methylazetidin-1-yl)(2-(6-(2-ethyl-5-fluoro-4-hydroxyphenyl)-1H-indazol-3-yl)-5-propyl-4,5,6,7-tetrahydro-3H-imidazo[4,5-c]pyridin-6-yl)methanone]	4%	Yes	53.5 µL/min/mg	–	–	2.51 nM	–	10.7
CCc1cc(O)ccc1-c1ccc2c(-c3nc4c([nH]3)CN(CC)[C@H](C(=O)N3CC(C)(N(C)C)C3)C4)n[nH]c2c1 [Compound 3, (S)-(3-(dimethylamino)-3-methylazetidin-1-yl)(5-ethyl-2-(6-(2-ethyl-4-hydroxyphenyl)-1H-indazol-3-yl)-4,5,6,7-tetrahydro-3H-imidazo[4,5-c]pyridin-6-yl)methanone]	97%	Yes	0.8 µL/min/mg	–	–	–	–	–
